Data taken from US20130085260A1, “METHOD FOR THE IDENTIFICATION OF T CELL EPITOPES” (CENTRE H[…] L'UNIVERSITE DE MONTREAL, priority 2010, published 2013).

Key:
Format in all cases: cell-based, human
NP-CD8 T cell clone = conditions: EBV-B cells pulsed with synthetic peptide, 1 to 10 μg/mL for 10-mer, 50 μg/mL for longer peptides, 3 hours
[1] = system: M1^58-66-specific T cells (M1-CD8); conditions: EBV-B cells pulsed with peptide; negative specificity control
M1-CD4 T cell clone = assay: IFN-γ secretion (ELISA) by M1-CD4 T cell clone co-cultured with peptide-pulsed EBV-B cells; conditions: EBV-B cells pulsed with synthetic peptide; HLA-DR-restricted
Description: Antigen-specific bulk T cells from peripheral blood mononuclear cells stimulated with autologous CD4O-B cells electroporated with M1 or NP DNA plasmids were cloned by limiting dilution and cultured as previously described.^8
Synthetic peptides were added to EBV-B cells at a final concentration of 1 to 10 μg/mL for MHC class 110-mer peptides (50 μg/mL for longer peptides) (Table 2) for 3 hours at 37° C. 5% CO2, and then washed once to remove unbound peptides. T-cell clones were washed and cultured for 4 hours in Iscove's complete medium supplemented with 120 IU/ml of interleukin-2 (IL-2). T cell clones' reactivity to MHC-restricted epitopes was tested on the basis of interferon-γ cytokine secretion as described previously.^7

Row | Sequence | recognition by NP-CD8 T cell clone (IFN-γ production) (NP-CD8 T cell clone) | recognition by M1-CD4 T cell clone (IFN-γ production) (M1-CD4 T cell clone) | further results
1 | AFDERRNKYL [Peptide 2] | more weakly but nevertheless specifically recognized |  | 
2 | IMDQVPFSV [gp100^209-218 peptide] |  |  | recognition by M1^58-66-specific T cells (IFN-γ production) [1]: did not recognize
3 | LSAFDERRNKYLEEHPSAG [Peptide 1-6] | well recognized |  | 
4 | NGNGDPNNMDKAVKL [Peptide b] |  | weakly recognized | 
5 | YRKLKREITF |  | specifically recognized | 
